Measured values as given in PMC3963473, “Structure–Activity Relationship Studies of Pyrrolone Antimalarial Agents” (Chemmedchem, 2013).
pEC50: −log10 of the molar value. Values after ≈ are worked out from the molar mass of the structure shown. Where two headings read alike, the source gives them in different places.

Key:
[1] = system: Plasmodium falciparum K1; test: microbe, parasite or virus in culture; assay type: cell-based; conditions: for pEC50: Plasmodium falciparum, K1, read-out: EC50 P. falc.
Procedure: (§1) V. Design and Results of the in vitro & in vivo Studies.
A. Drug inhibition of in vitro cultured P. falciparum parasite:2 All in vitro assays were carried out twice independently. In vitro activity against the erythrocytic stages of P. falciparum was determined by using a 3H-hypoxanthine incorporation assay,5-6 using the […]
were dissolved in DMSO at 10 mg/mL and added to parasite cultures incubated in RPMI […]
haematocrit (0.3% parasitaemia). Serial doubling dilutions of each drug were prepared in […]
After 48 h, 50 µL of 3H-hypoxanthine (= 0.5 µCi) was added to each well of the plate. The plates were incubated for an additional 24 h under the same conditions. The plates were then harvested with a Betaplate cell harvester (Wallac, Zurich, Switzerland), and the red blood cells were transferred onto a glass fiber filter and then washed with distilled water. The dried filters were inserted into a plastic foil with 10 mL of scintillation fluid and were counted in a Betaplate™ liquid scintillation counter (Wallac, Zurich, […]

[2] = system: L6 cells; test: In vitro cytotoxicity assay in L6 cells (Alamar Blue); assay type: cell-based; conditions: Rattus norvegicus
Procedure: as §1
A. Drug inhibition of in vitro cultured P. falciparum parasite:2 All in vitro assays were carried out twice independently. In vitro activity against the erythrocytic stages of P. […]
B. In vitro cytotoxicity assay:2 Assays were performed in 96-well microtiter plates, each […]
mM) and 10% fetal bovine serum, and 4 x 10^4 L-6 cells (a primary cell line derived from rat skeletal myoblasts). Serial drug dilutions of seven 3-fold dilution steps covering a range […]
After 72 h of incubation the plates were inspected […]
of Alamar Blue was then added to each well and the plates incubated for another 2 h.
Then the plates were read with a Spectramax Gemini XS microplate fluorometer (Molecular Devices Cooperation, Sunnyvale, CA, USA) using an excitation wave length of […]
Data were analysed using the microplate reader software Softmax Pro (Molecular Devices Cooperation, Sunnyvale, CA, USA).

[3] = Aqueous solubility estimated by nephelometry; assay type: physicochemical; conditions: kinetic from dmso stock
Procedure: III. Physicochemical Evaluation […]
Solubility Estimation: Aqueous solubility was estimated by nephelometry.
Compound in DMSO was spiked into either water, pH 6.5 phosphate buffer or 0.01N HCl
(approx. pH 2.0) with the final DMSO concentration being 1%. Samples were then
analyzed by Nephelometry to determine the solubility range as described previously.1

[4] = Table 1, A-ring variants, mammalian L6 cells, mean of two independent assays, read-out: EC50 L6 cells
[5] = Table 1, water, nephelometry, 1% DMSO, read-out: Solubility water
[6] = Table 2, C-ring variants, L6 cells, mean of two independent assays, read-out: EC50 L6 cells

SMILES | pEC50 [1] | pEC50 [2, 4] | melting point [°C] | other results
CCOC(=O)C1=C(C)N/C(=C/c2cc(C)n(C3CCN(Cc4ccn(C)n4)CC3)c2C)C1=O [Compound 45] | 6.82 | 4.44 | 180 to 184 | –
CCCN1CCC(n2c(C)cc(/C=C3/NC(C)=C(C(=O)OCC)C3=O)c2C)CC1 [Compound 22] | 5.96 | 5.18 | 145 to 148 | –
COc1cc([C@@H]2c3cc4c(cc3[C@H](O)[C@H]3COC(=O)[C@H]23)OCO4)cc(OC)c1OC [podophyllotoxin, reference compound] | – | – | – | pEC50 ([2]; L6, read-out: EC50 L6 cells): 7.66 to 8.05
CCOC(=O)C1=C(C)N/C(=C/c2cc(C)n(C3CCN(Cc4cc(C)on4)CC3)c2C)C1=O [Compound 47] | 7.00 | 4.38 | 185 to 188 | –
CCOC(=O)C1=C(C)N/C(=C/c2cc(C)n(C3CCNCC3)c2C)C1=O [Compound 18] | 4.92 | < 3.60 | > 250 | –
CCOC(=O)C1=C(C)N/C(=C/c2cc(C)n(C3CCN(CC4CCN(C)CC4)CC3)c2C)C1=O [Compound 42] | 5.85 | 4.09 | 230 to 235 | –
CCOC(=O)C1=C(C)N/C(=C/c2cc(C)n(C3CCN(Cc4ccccc4)CC3)c2C)C1=O [Compound 17, (E)-Ethyl 5-((1-(1-benzylpiperidin-4-yl)-2,5-dimethyl-1H-pyrrol-3-yl)methylene)-2-methyl-4-oxo-4,5-dihydro-1H-pyrrole-3-carboxylate] | 7.46 | 4.70 | 150 to 155 | solubility ([3]; aqueous buffer, pH 6.5 phosphate buffer, nephelometry, 1% DMSO, read-out: Solubility pH 6.5): 14 to 28 µM (≈ 6.27 to 12.5 µg/mL); solubility [3, 5]: > 125 µM; solubility ([3]; simulated gastric fluid, pH 2.0 (0.01N HCl), nephelometry, 1% DMSO, read-out: Solubility pH 2.0): 56 to 110 µM (≈ 25.1 to 49.2 µg/mL)
CCOC(=O)C1=C(/C=C/N(C)C)N/C(=C/c2cc(C)n(-c3ccccc3C(F)(F)F)c2C)C1=O [Compound 55, (E)-Ethyl 5-((2,5-dimethyl-1-(2-(trifluoromethyl)phenyl)-1H-pyrrol-3-yl)methylene)-2-((E)-2-(dimethylamino)vinyl)-4-oxo-4,5-dihydro-1H-pyrrole-3-carboxylate] | 7.21 | – | – | pEC50 [2, 6]: 4.25; solubility ([3]; Table 2, water, read-out: Solubility water): > 125 µM
Cc1cc(/C=C2/Nc3ccn(CCN(C)C)c(=O)c3C2=O)c(C)n1-c1ccccc1C(F)(F)F [Compound 61] | 6.60 | – | 125 to 128 | decrease in EC50 value relative to the unsubstituted analogue 56 ([1]; P. falciparum K1, relative to 56): fivefold; pEC50 [2, 6]: 4.46
CCOC(=O)C1=C(C)N/C(=C/c2cc(C)n(C3CCN(CCN4CCOCC4)CC3)c2C)C1=O [Compound 37] | 5.28 | 4.05 | 115 to 118 | –
CCOC(=O)C1=C(C)N/C(=C/c2cc(C)n(C3CCN(Cc4ccc(N5CCOCC5)cc4)CC3)c2C)C1=O [Compound 54] | 5.59 | 4.28 | > 280 | –
CCOC(=O)C1=C(C)N/C(=C/c2cc(C)n(C3CCN(CCN4CCCCC4)CC3)c2C)C1=O [Compound 38] | 5.62 | 4.01 | 122 to 125 | –
CCOC(=O)C1=C(C)N/C(=C/c2cc(C)n(C3CCN(Cc4ccc(F)cc4F)CC3)c2C)C1=O [Compound 27] | 7.64 | 4.64 | – | solubility [3, 5]: > 125 µM
CCOC(=O)C1=C(C)N/C(=C/c2cc(C)n(C3CCN(C)CC3)c2C)C1=O [Compound 19] | 5.85 | 5.11 | 130 to 135 | –
Cc1cc(/C=C2/Nc3ccn(Cc4ccccc4)c(=O)c3C2=O)c(C)n1-c1ccccc1C(F)(F)F [Compound 62, (E)-5-Benzyl-2-((2,5-dimethyl-1-(2-(trifluoromethyl)phenyl)-1H-pyrrol-3-yl)methylene)-1H-pyrrolo[3,2-c]pyridine-3,4(2H, 5H)dione] | 6.64 | – | 195 to 200 | drop / loss in activity (fold) ([1]; P. falciparum K1, C-ring variants, comparator not stated explicitly): fivefold; pEC50 [2, 6]: 4.37
CCOC(=O)C1=C(C)N/C(=C/c2cc(C)n(C3CCN(CC4CC4)CC3)c2C)C1=O [Compound 39] | 5.46 | 4.85 | 142 to 146 | –
CCOC(=O)C1=C(C)N/C(=C/c2cc(C)n(C3CCN(CCC(C)C)CC3)c2C)C1=O [Compound 21] | 6.72 | 4.66 | 158 to 162 | –
CCOC(=O)C1=C(C)N/C(=C/c2cc(C)n(C3CCN(Cc4ccc(-c5noc(C)n5)cc4)CC3)c2C)C1=O [Compound 51] | 9.00 | 4.96 | 195 to 200 | solubility [3, 5]: > 125 µM
